ChEMBL document CHEMBL3808392, “Design, synthesis and biological evaluation of 5-fluorouracil-derived benzimidazoles as novel type of potential antimicrobial agents” (2016)
In brackets after ≈: the same amount, converted by molar mass.

Columns and labels:
Escherichia coli [1] = test: Antimicrobial activity against Escherichia coli JM109 after 24 hrs by microbroth dilution method; format: functional; details: JM109, 24 h
Escherichia coli [2] = test: Antimicrobial activity against Escherichia coli DH52 after 24 hrs by microbroth dilution method; format: functional; details: DH52, 24 h
Staphylococcus aureus [3] = test: Antimicrobial activity against methicillin-resistant Staphylococcus aureus N315 after 24 hrs by microbroth dilution method; format: functional; details: N315, 24 h
Candida albicans = test: Antimicrobial activity against Candida albicans ATCC 10231 after 24 hrs by microbroth dilution method; format: functional; details: ATCC 10231, 24 h
Staphylococcus aureus [4] = test: Antimicrobial activity against Staphylococcus aureus ATCC 25923 after 24 hrs by microbroth dilution method; format: functional; details: ATCC 25923, 24 h
[5] = Antimicrobial activity against Bacillus proteus ATCC 13315 after 24 hrs by microbroth dilution method; format: functional; details: ATCC 13315, 24 h
Bacillus spizizenii = test: Antimicrobial activity against Bacillus subtilis ATCC 6633 after 24 hrs by microbroth dilution method; format: functional; details: ATCC 6633, 24 h
Candida = test: Antimicrobial activity against Candida mycoderma ATCC 9888 after 24 hrs by microbroth dilution method; format: functional; details: ATCC 9888, 24 h
Aspergillus flavus = test: Antimicrobial activity against Aspergillus flavus ATCC 204304 after 24 hrs by microbroth dilution method; format: functional; details: ATCC 204304, 24 h
Saccharomyces cerevisiae = test: Antimicrobial activity against Saccharomyces cerevisiae after 24 hrs by microbroth dilution method; format: functional
Micrococcus luteus = test: Antimicrobial activity against Micrococcus luteus ATCC 4698 after 24 hrs by microbroth dilution method; format: functional; details: ATCC 4698, 24 h
Salmonella typhi = test: Antimicrobial activity against Bacillus typhi after 24 hrs by microbroth dilution method; format: functional, Salmonella enterica subsp. enterica serovar Typhi; details: Salmonella enterica
Escherichia coli [6] = test: Potency index, ratio of chloromycin MIC to compound MIC for antimicrobial activity against Escherichia coli DH52; format: functional

SMILES | MIC (Escherichia coli [1]) | MIC (Escherichia coli [2]) | MIC (Staphylococcus aureus [3]) | MIC (Candida albicans) | MIC (Staphylococcus aureus [4]) | MIC [5] | MIC (Bacillus spizizenii) | MIC (Candida) | MIC (Aspergillus flavus) | MIC (Saccharomyces cerevisiae) | MIC (Micrococcus luteus) | MIC (Salmonella typhi) | Ratio (Escherichia coli [6])
CCCCCCCCCCCCn1c(=O)c(F)cn(Cc2nc3ccccc3n2CCCCCCCCCCCC)c1=O | 256 µg/mL (≈ 429 µM) | 512 µg/mL (≈ 858 µM) | > 512 µg/mL | 256 µg/mL (≈ 429 µM) | > 512 µg/mL | 512 µg/mL (≈ 858 µM) | 512 µg/mL (≈ 858 µM) | 32 µg/mL (≈ 53.6 µM) | 512 µg/mL (≈ 858 µM) | > 512 µg/mL | 512 µg/mL (≈ 858 µM) | 512 µg/mL (≈ 858 µM) | 
COc1ccc(Cn2c(=O)c(F)cn(Cc3nc4ccccc4n3Cc3ccc(OC)cc3)c2=O)cc1 | 16 µg/mL (≈ 32 µM) | 128 µg/mL (≈ 256 µM) | 32 µg/mL (≈ 63.9 µM) | 64 µg/mL (≈ 128 µM) | 128 µg/mL (≈ 256 µM) | 32 µg/mL (≈ 63.9 µM) | 64 µg/mL (≈ 128 µM) | 512 µg/mL (≈ 1020 µM) | 32 µg/mL (≈ 63.9 µM) | 64 µg/mL (≈ 128 µM) | 64 µg/mL (≈ 128 µM) | 64 µg/mL (≈ 128 µM) | 
O=c1c(F)cn(Cc2nc3ccccc3n2Cc2ccccc2Cl)c(=O)n1Cc1ccccc1Cl | > 512 µg/mL | > 512 µg/mL | > 512 µg/mL | 512 µg/mL (≈ 1010 µM) | > 512 µg/mL | > 512 µg/mL | > 512 µg/mL | 512 µg/mL (≈ 1010 µM) | 512 µg/mL (≈ 1010 µM) | > 512 µg/mL | > 512 µg/mL | 512 µg/mL (≈ 1010 µM) | 
O=c1c(F)cn(Cc2nc3ccccc3n2Cc2ccccc2)c(=O)n1Cc1ccccc1 | > 512 µg/mL | > 512 µg/mL | > 512 µg/mL | 128 µg/mL (≈ 291 µM) | > 512 µg/mL | > 512 µg/mL | 64 µg/mL (≈ 145 µM) | 128 µg/mL (≈ 291 µM) | 64 µg/mL (≈ 145 µM) | > 512 µg/mL | 128 µg/mL (≈ 291 µM) | 128 µg/mL (≈ 291 µM) | 
CCn1c(Cn2cc(F)c(=O)[nH]c2=O)nc2ccccc21 | 64 µg/mL (≈ 222 µM) | 8 µg/mL (≈ 27.8 µM) | 16 µg/mL (≈ 55.5 µM) | 2 µg/mL (≈ 6.94 µM) | 16 µg/mL (≈ 55.5 µM) | 32 µg/mL (≈ 111 µM) | 64 µg/mL (≈ 222 µM) | 16 µg/mL (≈ 55.5 µM) | 32 µg/mL (≈ 111 µM) | 4 µg/mL (≈ 13.9 µM) | 16 µg/mL (≈ 55.5 µM) | 32 µg/mL (≈ 111 µM) | 4
CCCCCCCCn1c(Cn2cc(F)c(=O)[nH]c2=O)nc2ccccc21 | 256 µg/mL (≈ 687 µM) | 64 µg/mL (≈ 172 µM) | 512 µg/mL (≈ 1370 µM) | 32 µg/mL (≈ 85.9 µM) | 512 µg/mL (≈ 1370 µM) | 512 µg/mL (≈ 1370 µM) | 512 µg/mL (≈ 1370 µM) | 64 µg/mL (≈ 172 µM) | 32 µg/mL (≈ 85.9 µM) | 32 µg/mL (≈ 85.9 µM) | 512 µg/mL (≈ 1370 µM) | 512 µg/mL (≈ 1370 µM) | 
O=c1c(F)cn(Cc2nc3ccccc3n2Cc2ccccc2F)c(=O)n1Cc1ccccc1F | 128 µg/mL (≈ 269 µM) | 128 µg/mL (≈ 269 µM) | 512 µg/mL (≈ 1070 µM) | > 512 µg/mL | 16 µg/mL (≈ 33.6 µM) | 512 µg/mL (≈ 1070 µM) | 128 µg/mL (≈ 269 µM) | 512 µg/mL (≈ 1070 µM) | > 512 µg/mL | 128 µg/mL (≈ 269 µM) | 512 µg/mL (≈ 1070 µM) | 512 µg/mL (≈ 1070 µM) | 
CCCCCCCCCCCCn1c(Cn2cc(F)c(=O)[nH]c2=O)nc2ccccc21 | > 512 µg/mL | > 512 µg/mL | > 512 µg/mL | > 512 µg/mL | > 512 µg/mL | > 512 µg/mL | > 512 µg/mL | 512 µg/mL (≈ 1190 µM) | > 512 µg/mL | 64 µg/mL (≈ 149 µM) | > 512 µg/mL | > 512 µg/mL | 
CCCn1c(Cn2cc(F)c(=O)[nH]c2=O)nc2ccccc21 | 64 µg/mL (≈ 212 µM) | 64 µg/mL (≈ 212 µM) | 16 µg/mL (≈ 52.9 µM) | 2 µg/mL (≈ 6.62 µM) | 16 µg/mL (≈ 52.9 µM) | 64 µg/mL (≈ 212 µM) | 16 µg/mL (≈ 52.9 µM) | 16 µg/mL (≈ 52.9 µM) | 32 µg/mL (≈ 106 µM) | 8 µg/mL (≈ 26.5 µM) | 16 µg/mL (≈ 52.9 µM) | 64 µg/mL (≈ 212 µM) | 
CCCCCn1c(=O)c(F)cn(Cc2nc3ccccc3n2CCCCC)c1=O | 16 µg/mL (≈ 40 µM) | 512 µg/mL (≈ 1280 µM) | 16 µg/mL (≈ 40 µM) | > 512 µg/mL | 16 µg/mL (≈ 40 µM) | 8 µg/mL (≈ 20 µM) | 512 µg/mL (≈ 1280 µM) | 8 µg/mL (≈ 20 µM) | > 512 µg/mL | 8 µg/mL (≈ 20 µM) | 32 µg/mL (≈ 79.9 µM) | 512 µg/mL (≈ 1280 µM) | 
O=c1[nH]c(=O)n(Cc2nc3ccccc3[nH]2)cc1F | 32 µg/mL (≈ 123 µM) | 64 µg/mL (≈ 246 µM) | 128 µg/mL (≈ 492 µM) | 32 µg/mL (≈ 123 µM) | 128 µg/mL (≈ 492 µM) | 16 µg/mL (≈ 61.5 µM) | 64 µg/mL (≈ 246 µM) | 64 µg/mL (≈ 246 µM) | 128 µg/mL (≈ 492 µM) | 64 µg/mL (≈ 246 µM) | 64 µg/mL (≈ 246 µM) | 32 µg/mL (≈ 123 µM) | 
